Molecular target: T1, human NaV1.6 (hNaV1.6) (Homo sapiens, UniProt Q9UQD0)
T1 construct: expressed in transfected cells; host or cells: HEK-293
Experiment: Modulation of late sodium current (INaL) at hNaV1.6, PatchXpress electrophysiology
Format: cell-based
Settings: HEK293, HEK-293 cells expressing recombinant human NaV 1.6, late current evoked by 300 nM ATX-II, read-out: NaV 1.6 Assay Data (percent inhibition of INaL at hNaV1.6)
Protocol: Functional characterization of exemplary compounds to modulate INaL expressed by the NaV1.6 voltage-gated sodium channel was accomplished using the PatchXpress™ high throughput electrophysiology platform (Molecular Devices, Sunnyvale, CA). HEK-293 cells expressing recombinant, human NaV1.6 (hNaV1.6) were grown in DMEM/high-glucose Dulbecco's modified, 10% FBS, 2 mM sodium pyruvate, 10 mM HEPES and 400 μg/mL G418. Cells were grown to 50%-80% confluency prior to harvesting. Trypsinized cells were washed, allowed to recover for 1 hour and then resuspended in extracellular recording solution at a concentration of 1×10^6 cells/ml. The onboard liquid handling facility of the PatchXpress was used for dispensing cells and applying test compounds. NaV late currents were evoked by the application of 300 nM ATX-II. INaL was evoked by depolarizing pulses to 0 mV for 200 ms from a non-inactivating holding potential (e.g., −120 mV) at a frequency of 0.1 Hz. INaL amplitude and stability were determined by analyzing the mean current amplitude over the final 20 ms of the test pulse. Following steady state block with exemplary compounds (e.g., as described herein), a Na+ free solution containing an impermeant cation (e.g., Choline or NDMG) was added to confirm the identity of the sodium current. Percent steady-state inhibition of INaL was calculated as: […], where INaL_compound and INaL_control represent INaL recorded in the presence or absence of compound, respectively.
Results from this assay relating to percent inhibition of INaL at hNaV1.6 (measured using a procedure similar to described above but using HEK-293 cells expressing recombinant, human NaV 1.6 (h NaV 1.6) at 1 μM are summarized in Table 1 below. In this table, “A” indicates inhibition of less than 30%; “B” indicates inhibition of between about 30% to about 70%; and “C” indicates inhibition of greater than 70%. “N/A” indicates not available.

T1 sequence (Q9UQD0 whole entry): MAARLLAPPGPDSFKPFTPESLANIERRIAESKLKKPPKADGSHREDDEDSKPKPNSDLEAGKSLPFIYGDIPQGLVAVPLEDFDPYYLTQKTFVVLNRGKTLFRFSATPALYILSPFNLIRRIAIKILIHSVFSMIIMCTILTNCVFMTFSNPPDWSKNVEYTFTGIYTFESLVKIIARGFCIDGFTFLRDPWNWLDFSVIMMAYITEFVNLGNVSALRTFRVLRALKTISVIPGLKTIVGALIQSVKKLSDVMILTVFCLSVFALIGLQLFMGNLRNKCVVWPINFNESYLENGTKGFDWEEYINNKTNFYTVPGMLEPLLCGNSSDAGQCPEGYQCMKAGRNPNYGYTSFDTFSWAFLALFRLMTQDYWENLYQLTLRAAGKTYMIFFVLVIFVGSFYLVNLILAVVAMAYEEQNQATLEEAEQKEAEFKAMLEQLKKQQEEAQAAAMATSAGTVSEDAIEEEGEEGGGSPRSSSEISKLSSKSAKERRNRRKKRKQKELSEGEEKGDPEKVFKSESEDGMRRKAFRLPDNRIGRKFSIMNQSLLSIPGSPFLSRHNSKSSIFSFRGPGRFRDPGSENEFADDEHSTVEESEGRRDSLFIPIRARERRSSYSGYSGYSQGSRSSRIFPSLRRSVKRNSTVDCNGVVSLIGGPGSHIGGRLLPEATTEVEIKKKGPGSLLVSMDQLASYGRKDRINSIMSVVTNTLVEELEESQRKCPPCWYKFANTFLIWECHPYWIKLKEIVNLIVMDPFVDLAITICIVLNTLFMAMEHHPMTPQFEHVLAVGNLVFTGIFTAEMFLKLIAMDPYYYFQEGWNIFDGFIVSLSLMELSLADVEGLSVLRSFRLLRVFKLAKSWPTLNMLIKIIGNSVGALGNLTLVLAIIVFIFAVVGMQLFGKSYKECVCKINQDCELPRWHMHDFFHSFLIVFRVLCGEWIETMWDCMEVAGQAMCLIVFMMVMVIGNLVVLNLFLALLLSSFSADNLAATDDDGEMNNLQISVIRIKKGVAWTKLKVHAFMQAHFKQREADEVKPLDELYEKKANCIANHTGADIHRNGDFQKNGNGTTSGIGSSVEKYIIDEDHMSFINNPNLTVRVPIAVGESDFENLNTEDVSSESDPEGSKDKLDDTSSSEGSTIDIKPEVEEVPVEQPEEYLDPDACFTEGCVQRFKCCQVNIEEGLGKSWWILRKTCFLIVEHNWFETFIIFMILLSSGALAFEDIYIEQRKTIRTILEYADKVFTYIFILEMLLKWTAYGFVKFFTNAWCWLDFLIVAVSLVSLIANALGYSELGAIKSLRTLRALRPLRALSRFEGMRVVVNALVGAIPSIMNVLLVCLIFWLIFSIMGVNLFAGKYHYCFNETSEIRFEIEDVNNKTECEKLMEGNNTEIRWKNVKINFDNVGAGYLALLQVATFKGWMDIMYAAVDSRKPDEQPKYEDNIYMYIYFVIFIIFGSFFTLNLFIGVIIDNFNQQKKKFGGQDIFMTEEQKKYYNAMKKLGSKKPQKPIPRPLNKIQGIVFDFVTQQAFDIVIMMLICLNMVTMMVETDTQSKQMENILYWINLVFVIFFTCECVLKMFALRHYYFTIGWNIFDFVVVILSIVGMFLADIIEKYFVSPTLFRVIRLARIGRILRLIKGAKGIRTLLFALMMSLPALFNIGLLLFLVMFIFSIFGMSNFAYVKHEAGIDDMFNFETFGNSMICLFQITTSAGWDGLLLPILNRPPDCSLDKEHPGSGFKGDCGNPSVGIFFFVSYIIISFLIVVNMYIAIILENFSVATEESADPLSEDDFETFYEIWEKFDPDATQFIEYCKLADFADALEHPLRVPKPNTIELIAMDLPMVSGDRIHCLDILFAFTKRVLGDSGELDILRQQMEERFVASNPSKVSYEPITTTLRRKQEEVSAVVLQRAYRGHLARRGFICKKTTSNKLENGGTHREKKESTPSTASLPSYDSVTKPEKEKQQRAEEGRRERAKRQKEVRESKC

| Structure (SMILES) | inhibition at 1 µM |
| --- | --- |
| COC(C)(C)c1nnc2cnc(-c3ccc(OCC(F)(F)F)nc3)cn12 [Compound II-5, 3-(2-methoxypropan-2-yl)-6-(6-(2,2,2-trifluoroethoxy)pyridin-3-yl)-[1,2,4]triazolo[4,3-a]pyrazine] | < 30% |
| CO[C@@H](C)c1nnc2cnc(-c3cnc(OC4(C(F)(F)F)CCC4)c(F)c3)cn12 (single isomer, unassigned) [Compound I-4] | 30 to 70% |
| CCOC(C)(C)c1nnc2cnc(-c3ccc(OC(C)(C)C(F)(F)F)nc3)cn12 [Compound II-15, 3-(2-ethoxypropan-2-yl)-6-(6-((1,1,1-trifluoro-2-methylpropan-2-yl)oxy)pyridin-3-yl)-[1,2,4]triazolo[4,3-a]pyrazine] | 30 to 70% |
| COC(C)(C)c1nnc2cnc(-c3ccc(OC4(C(F)(F)F)CCC4)nc3)cn12 [Compound II-13, 3-(1-methoxy-1-methyl-ethyl)-6-[6-[1-(trifluoromethyl)cyclobutoxy]-3-pyridyl]-[1,2,4]triazolo[4,3-a]pyrazine] | 30 to 70% |
| CO[C@@H](C)c1nnc2cnc(-c3cnc(O[C@@H](C4CC4)C(F)(F)F)c(F)c3)cn12 (single isomer, unassigned) [Compound I-18] | 30 to 70% |
| CO[C@H](C)c1nnc2cnc(-c3ccc(OC(C)(C)C(F)(F)F)nc3)cn12 (single isomer, unassigned) [Compound I-9] | 30 to 70% |
| COC(C)(C)c1nnc2cnc(-c3ccc(OC(C)C(F)(F)F)nc3)cn12 (racemic) [Compound II-6, 3-(1-methoxy-1-methyl-ethyl)-6-[6-[rac-(1R)-2,2,2-trifluoro-1-methyl-ethoxy]-3-pyridyl]-[1,2,4]triazolo[4,3-a]pyrazine] | < 30% |
| COC(C)(C)c1nnc2cnc(-c3cnc(O[C@H](C)C(F)(F)F)c(F)c3)cn12 [Compound II-8, (R)-6-(5-fluoro-6-((1,1,1-trifluoropropan-2-yl)oxy)pyridin-3-yl)-3-(2-methoxypropan-2-yl)-[1,2,4]triazolo[4,3-a]pyrazine] | 30 to 70% |
| CCO[C@H](C)c1nnc2cnc(-c3cnc(OC4(C(F)(F)F)CCC4)c(F)c3)cn12 [Compound I-14, (R)-3-(1-ethoxyethyl)-6-(5-fluoro-6-(1-(trifluoromethyl)cyclobutoxy)pyridin-3-yl)-[1,2,4]triazolo[4,3-a]pyrazine] | 30 to 70% |
| CO[C@H](C)c1nnc2cnc(-c3cnc(O[C@@H](C4CC4)C(F)(F)F)c(F)c3)cn12 (single isomer, unassigned) [Compound I-17] | < 30% |
| CO[C@H](C)c1nnc2cnc(-c3cnc(O[C@H](C4CC4)C(F)(F)F)c(F)c3)cn12 (single isomer, unassigned) [Compound I-15] | 30 to 70% |
| CO[C@H](C)c1nnc2cnc(-c3ccc(OC4(C(F)(F)F)CCC4)nc3)cn12 (single isomer, unassigned) [Compound I-6] | 30 to 70% |
| CCO[C@@H](C)c1nnc2cnc(-c3ccc(OC(C)(C)C(F)(F)F)nc3)cn12 [Compound I-8, (S)-3-(1-ethoxyethyl)-6-(6-((1,1,1-trifluoro-2-methylpropan-2-yl)oxy)pyridin-3-yl)-[1,2,4]triazolo[4,3-a]pyrazine] | 30 to 70% |
| CO[C@@H](C)c1nnc2cnc(-c3ccc(OC4(C(F)(F)F)CCC4)nc3)cn12 (single isomer, unassigned) [Compound I-5] | 30 to 70% |
| CCO[C@H](C)c1nnc2cnc(-c3cnc(OC(C)(C)C(F)(F)F)c(F)c3)cn12 [Compound I-13, (R)-3-(1-ethoxyethyl)-6-(5-fluoro-6-((1,1,1-trifluoro-2-methylpropan-2-yl)oxy)pyridin-3-yl)-[1,2,4]triazolo[4,3-a]pyrazine] | 30 to 70% |
| COC1(c2nnc3cnc(-c4cnc(OCC(F)(F)F)c(F)c4)cn23)CC1 [Compound II-1, 6-(5-fluoro-6-(2,2,2-trifluoroethoxy)pyridin-3-yl)-3-(1-methoxycyclopropyl)-[1,2,4]triazolo[4,3-a]pyrazine] | < 30% |
| C[C@H](Oc1ccc(-c2cn3c(C(F)(F)Cl)nnc3cn2)cn1)C(F)(F)F [Compound II-7, (S)-3-(chlorodifluoromethyl)-6-(6-((1,1,1-trifluoropropan-2-yl)oxy)pyridin-3-yl)-[1,2,4]triazolo[4,3-a]pyrazine] | 30 to 70% |

Further lines, results first:

| inhibition at 1 µM | Structure (SMILES) |
| --- | --- |
| > 70% | COC(F)(F)c1nnc2cnc(-c3ccc([C@H]4CC4(F)F)cc3C)cn12 (single isomer, unassigned) [Compound III-7] |
| 30 to 70% | CCOC(F)(F)c1nnc2cnc(-c3ccc([C@@H](C)OCC(F)(F)F)cc3C)cn12 (single isomer, unassigned) [Compound III-9] |
| > 70% | COC(F)(F)c1nnc2cnc(-c3ccc([C@@H]4CC4(F)F)cc3)cn12 (single isomer, unassigned) [Compound III-3] |
| > 70% | C[C@H](Oc1ccc(-c2cn3c(C(F)F)nnc3cn2)cn1)C(F)(F)F [Compound III-16, (S)-3-(difluoromethyl)-6-(6-((1,1,1-trifluoropropan-2-yl)oxy)pyridin-3-yl)-[1,2,4]triazolo[4,3-a]pyrazine] |
| 30 to 70% | COC(F)(F)c1nnc2cnc(-c3ccc(COCC(F)(F)F)cc3C)cn12 [Compound III-6, 3-[difluoro(methoxy)methyl]-6-[2-methyl-4-(2,2,2-trifluoroethoxymethyl)phenyl]-[1,2,4]triazolo[4,3-a]pyrazine] |
| 30 to 70% | CCOC(F)(F)c1nnc2cnc(-c3ccc(COCC(F)(F)F)cc3C)cn12 [Compound III-5, 3-[ethoxy(difluoro)methyl]-6-[2-methyl-4-(2,2,2-trifluoroethoxymethyl)phenyl]-[1,2,4]triazolo[4,3-a]pyrazine] |
| 30 to 70% | COCC(F)(F)Oc1ccc(-c2cn3c(C(F)(F)F)nnc3cn2)cc1 [Compound III-12, 6-(4-(1,1-difluoro-2-methoxyethoxy)phenyl)-3-(trifluoromethyl)-[1,2,4]triazolo[4,3-a]pyrazine] |
| 30 to 70% | COC(F)(F)c1nnc2cnc(-c3ccc([C@H]4CC4(F)F)cc3)cn12 (single isomer, unassigned) [Compound III-4] |
| > 70% | FC(F)(F)c1nnc2cnc(-c3ccc(O[C@@H](C4CC4)C(F)(F)F)nc3)cn12 [Compound III-15, (S)-6-(6-(1-cyclopropyl-2,2,2-trifluoroethoxy)pyridin-3-yl)-3-(trifluoromethyl)-[1,2,4]triazolo[4,3-a]pyrazine] |
| 30 to 70% | CCOC(F)(F)c1nnc2cnc(-c3ccc([C@H](C)OCC(F)(F)F)cc3)cn12 (single isomer, unassigned) [Compound III-20] |
| 30 to 70% | CCOC(F)(F)c1nnc2cnc(-c3ccc(COCC(F)(F)F)cc3)cn12 [Compound III-11, 3-(ethoxydifluoromethyl)-6-(4-((2,2,2-trifluoroethoxy)methyl)phenyl)-[1,2,4]triazolo[4,3-a]pyrazine] |
| < 30% | CCOC(F)(F)c1nnc2cnc(-c3ccc([C@@H](C)OCC(F)(F)F)cc3)cn12 (single isomer, unassigned) [Compound III-19] |
